# According to patent US6268397A, “Use of (α-aminomethyl-3,4-dichlorobenzyl) thioacetamide derivatives for inhibiting dopamine reuptake and new compounds for this use” (Laboratoire. L. Lafon, priority 1995, dated 2001):
# Counter-ions that a name gives are not always drawn. Like-named read-outs stand apart in the source and are kept apart here.
# Experiments:
# mice [1] = assay: Locomotor activity of mice; type: in vivo, mice (male, NMRI); settings: recorded over 30 minutes
# Description: Effects on the Locomotor Activity of Mice
# Half an hour after receiving CRL 41 789 or CRL 41 790 intraperitoneally in distilled water, groups of 6 to 24 mice (male, NMRI, C.R.E. Janvier, 18-22 g) are placed individually in crossed-beam activity cages, where their locomotor activity (number of rays crossed) is recorded over 30 minutes.
# mice [2] = assay: Test of "behavioural despair" in mice; type: in vivo, mice (male, CD1)
# Excerpt: Effects on the Test of "Behavioural Despair"in Mice
# Half an hour after receiving CRL 41 789 or CRL 41 790 intraperitoneally in distilled water, groups of 6 or 12 mice (male, CD1, Charles River, 18-22 g) are placed individually in a high vessel made of transparent glass, filled with water to a height of 6 cm. The total period of immobility between the beginning of the 3rd minute and the end of the 6th minute following immersion of the animal is noted.
# mice [3] = assay: Toxicity in mice via the i.p. route (LD0, LD100); type: in vivo
# Excerpt: The LD0 and LD100 values in mice via the i.p. route are also given in this table.
# rats = assay: Induction of stereotyped movements in rats; type: in vivo, rat (male, CD, Sprague-Dawley); settings: i.p.
# Description: Induction of Stereotyped Movements in Rats
# Groups of 6 rats (male, CD, Sprague-Dawley, Charles River, 160-200 g) receive CRL 41 789 or CRL 41 790 intraperitoneally in distilled water (5 ml/kg), and are immediately place in Flexiglas cages (20×10×10cm). The stereotyped movements are scored from 0 to 3 every 10 minutes until they have disappeared.
# [4] = Solubility of the product; type: physicochemical
# [5] = tested on: anaesthetized rat striatum; assay: Extracellular levels of neuro-mediators and metabolites in anaesthetized rat striatum (intracerebral microdialysis); type: in vivo, rat (male, Sprague-Dawley CD); settings: doses of 16, 32 or 64 mg/kg i.p.; for 3-methoxytyramine (3MT) concentration in the dialysate / dopamine concentration in the dialysate: hydrochloride
# Description: Effect On The Extracellular Levels Of Neuro-Mediators And Metabolites In Anaesthetized Rat Striatum (Intracerebral Microdialysis)
# This determination is obtained by high performance liquid chromatography coupled with and electro-chemical detection.
# HPLC: Spherisorb cartridge, ODS-2 (5 μm), L=[…], =4 mm, Merck. Mobile phase: 0.1 M potassium phosphate, 0.1 M citric acid, octane-sulphonic acid 50 mg/l, 0.1 mM EDTA, 4% methanol, ph 4.80 , pump output 0.9 ml/min
# electrochemical detection: BAS detector, LC-4C, +750 mV
# analyser: Millenium, Waters
# Rats (male, Sprague-Dawley CD, Charles River, 280-300 g) anaesthetized with chloral hydrate (400 mg/kg, i.p.) are placed in a stereotactic apparatus. The micro-dialysis probe (CMA/11 L=3 mm, =0.24 mm, Carnegie) is implanted according to the coordinates of the Paxinos and Watson atlas in the anterior portion of the left striatum: I=10, L=2.4, H=-6.1.
# Ringer's fluid (CaCl2 =2.4 mM, KCl=4 mM, NaCl=147 mM) is perfused at 2 μl/min into the probe. The dialysates collected every 20 minutes are cooled (to approximately 6° C.) and then analysed.
# After one hour of collection, groups of 6 rats receive intraperitoneally in a volume of 5 ml/kg:
# either an injection of isotonic sodium chloride solution,
# or the test compound dissolved in distilled water at doses of 16, 32 or 64 mg/kg.
# In the dialysate, the dopamine (DA), 3,4-dihydroxyphenylacetic acid (DOPAC), homovanillic acid (HVA) and 3-methoxytyramine (3MT) concentrations are measured by electrochemical detection and quantified with respect to a standard series, and are corrected in accordance with the efficiency of the probe determined in vitro before each test.
# Only tests in which the probes display an efficiency of more than 5% are taken into account.
# [6] = biological target: T1, site of dopamine reuptake (Rattus norvegicus, UniProt P23977); assay: Inhibition of binding at the site of dopamine reuptake in vitro in rat striatum ([3H]mazindol); set-up: species or system rat (male, CD Sprague-Dawley); settings: pH 7.7, mean of three tests
# T1 construct: The striata are removed immediately and then stored at -80° C. until used; from tissue; host or cells: rat striatum membranes (male CD Sprague-Dawley)
# Description: Inhibition Of Binding At the Site of Dopamine Reuptake In Vitro In Rat Striatum
# Rats, (male, CD Sprague-Dawley, 200-250 g) are sacrificed by decapitation. The striata are removed immediately and then stored at -80° C. until used. On the day of the manipulation, the striata are thawed, coated with buffer and then brought into suspension. This suspension is then poured into the centrifuge tubes, made up to 10 ml with pH 7.7 buffer (50 mM Tris (HCl), 120 mM NaCl, 5 mM KCl) and thereafter centrifuged at 20,000 rpm for 15 minutes. The pellet is resuspended in 10 ml of buffer and is then subjected to a second centrifugation (20,000 rpm for 15 minutes). The above procedure is repeated, so that the homogenate undergoes a third centrifugation identical to the previous two. The pellet thereby obtained is suspended in a few ml of buffer and then homogenized. The membrane suspension is then diluted in a requisite volume. Increasing concentrations of the test compounds dissolved in the buffer are distributed. Aliquots of the membrane suspension are then added. The radioactive ligand ([^3 H]mazindol), used as a label of the type of site studied, is then distributed manually in the tubes, which are thereafter incubated (final volume 1 ml).
# The reaction is stopped by filtration through a Harvester system (Whatman GF/B filter strip). The filter strip is then washed three times with 5 ml of buffer before being placed in an automatic cutting system.
# The cut filters fall into counting vials, and 4 ml of scintillation fluid are distributed automatically by the system. Each sample is subjected to counting of the radioactivity using a liquid scintillation counter.
# Three series of tests (test 1, test 2 and test 3) are carried out with each compound for determination of the IC50, each determination being carried out on two different samples.
# The specific binding is defined as the difference between the total binding and the non-specific binding (displace by an excess of non-radioactive ligand). The values obtained in counts per minute (cpm) are then converted into disintegrations per minute (dpm) in accordance with the efficiency of the counter.
# The IC50 is defined as the concentration of the substance under study needed to displace 50% of the specifically bound radioactive label.
# The experimental data emanating from the liquid scintillation counter (Kontron) are stored on diskette, managed by a program (Convert) and then analysed by means of Ligand* software, which calculates the 50% inhibitory concentration (IC50) and the inhibition constant Ki [formula]
# where [L] represents the concentration of the radioactive ligand and Kd the dissociation constant of this same ligand. (The values of the IC50 and of Ki are inversely proportional to the affinity of the product under study for the binding site.
# [7] = rat striatum, read-out: Inhibition of binding at the site of dopamine reuptake IC50
# [8] = rat striatum, read-out: Inhibition of binding at the site of dopamine reuptake Ki
# [9] = Inhibition of binding at the site of dopamine reuptake IC50, rat striatum
# [10] = Inhibition of binding at the site of dopamine reuptake Ki, rat striatum
# T1 sequence (P23977 whole entry): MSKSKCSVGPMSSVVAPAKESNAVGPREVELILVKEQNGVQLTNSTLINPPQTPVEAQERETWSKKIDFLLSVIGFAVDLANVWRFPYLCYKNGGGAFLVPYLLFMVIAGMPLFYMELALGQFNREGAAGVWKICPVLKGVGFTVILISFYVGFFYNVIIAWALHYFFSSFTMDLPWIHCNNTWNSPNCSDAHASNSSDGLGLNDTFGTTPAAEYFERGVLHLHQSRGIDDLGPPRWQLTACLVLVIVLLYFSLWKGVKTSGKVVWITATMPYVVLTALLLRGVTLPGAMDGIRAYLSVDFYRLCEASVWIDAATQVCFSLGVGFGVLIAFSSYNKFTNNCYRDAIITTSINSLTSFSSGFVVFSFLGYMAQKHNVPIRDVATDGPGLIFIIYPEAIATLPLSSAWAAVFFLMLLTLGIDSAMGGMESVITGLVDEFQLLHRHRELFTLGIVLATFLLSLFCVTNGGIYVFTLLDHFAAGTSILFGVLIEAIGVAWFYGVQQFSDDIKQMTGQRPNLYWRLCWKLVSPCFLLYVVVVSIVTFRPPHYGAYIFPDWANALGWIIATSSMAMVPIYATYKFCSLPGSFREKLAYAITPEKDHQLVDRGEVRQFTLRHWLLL
Compound,LD0 (mice [3]; hydrochloride),LD100 (mice [3]; hydrochloride),solubility in ethanol [4],solubility in ether [4],solubility in ethyl acetate [4],solubility in methanol [4],solubility in water [4],3-methoxytyramine (3MT) concentration in the dialysate [5],dopamine concentration in the dialysate [5],"IC50 [6, 7]","Ki [6, 8]",LD0 (mice [3]),LD100 (mice [3]),"IC50 [6, 9]","Ki [6, 10]",other results
"CC(C)(C)NCC(SCC(N)=O)c1ccc(Cl)c(Cl)c1 (single isomer, unassigned) [CRL 41 790, d(+)-[α-(tert-butylaminomethyl)-3,4-dichlorobenzyl]thioacetamide hydrochloride]",128 mg/kg,512 mg/kg,soluble,insoluble,insoluble,soluble,soluble,does not cause any modification,does not cause any modification,1100 nM,620 nM,–,–,–,–,"locomotor activity (mice [1]; i.p., even at 64 mg/kg): does not give rise to any increase in the locomotor activity; period of immobility (mice [2]; i.p., even at the high dose of 64 mg/kg): does not give rise to any decrease in the period of immobility; stereotyped movements (rats; even at the high dose of 128 mg/kg): does not cause the appearance of any stereotyped movement"
"CC(C)(C)NCC(SCC(N)=O)c1ccc(Cl)c(Cl)c1 (racemic) [CRL 41 414, [α-(tert-butylaminomethyl)-3,4-dichlorobenzyl]thioacetamide]",–,–,–,–,–,–,–,–,–,–,–,128 mg/kg,256 mg/kg,31 nM,63 nM,–
"NC(=O)CSC(CNC12CC3CC(CC(C3)C1)C2)c1ccc(Cl)c(Cl)c1 (stereo not drawn) [CRL 42 060, [α-(1-adamantylaminomethyl)-3,4-dichlorobenzyl]thioacetamide hemifumarate]",–,–,–,insoluble,insoluble,soluble,insoluble,–,–,–,–,128 mg/kg,1024 mg/kg,40 nM,44 nM,solubility in DMSO ([4]; DMSO): soluble
"CC(C)(C)NCC(SCC(N)=O)c1ccc(Cl)c(Cl)c1 (single isomer, unassigned) [CRL 41 789, 1(-)-[α-(tert-butylaminomethyl)-3,4-dichlorobenzyl]thioacetamide hydrochloride]",64 mg/kg,256 mg/kg,soluble,insoluble,insoluble,–,soluble,significant increase,significant increase,44 nM,24 nM,–,–,–,–,"locomotor activity (mice [1]; i.p., 2, 8 and 32 mg/kg): marked and statistically significant increase in the locomotor activity of the mice is observed, the increase rising with the dose; period of immobility (mice [2]; i.p., 0.5, 2, 8 and 32 mg/kg): a decrease in the period of immobility is observed, the decrease rising with the dose; period of immobility, significance of the effect (mice [2]; i.p., 8 and 32 mg/kg): marked and statistically significant; stereotyped movements (rats; 16 and 32 mg/kg): appearance of intense and lasting stereotyped movements; DOPAC concentration in the dialysate [5]: without modification; HVA concentration in the dialysate [5]: without modification"
"CCC(C)(C)NCC(SCC(N)=O)c1ccc(Cl)c(Cl)c1 (stereo not drawn) [CRL 42 059, [α-(tert-amylaminomethyl)-3,4-dichlorobenzyl]thioacetamide hydrochloride]",–,–,–,insoluble,insoluble,–,soluble,–,–,–,–,30 mg/kg,256 mg/kg,74 nM,46 nM,solubility in alcohols ([4]; alcohols): soluble
